In patent US20100041647A1, “3-Substituted-[1,2,3]-Benzotriazinone compounds for enhancing glutamatergic synaptic responses” (CORTEX PHARMACEUTICALS, INC., priority 2007, published 2010):

Legend:
AMPA receptor [1] = test: Patch clamp electrophysiology assay (glutamate-induced whole-cell current in cultured cortical neurons); format: cell-based; settings: Concentration at which glutamate induced current is increased by 100%; 500 μM glutamate, rat cortical neurons
Procedure: Cortical cells were prepared from day 18-19 embryonic Sprague-Dawley rats and recorded after 3 days in culture. The extracellular solution (ECS) contained (in mM): NaCl (145), KCl (5.4), HEPES (10), MgCl2 (0.8), CaCl2 (1.8), glucose (10), sucrose (30); pH. 7.4. In order to block the voltage-gated sodium currents, 40 nM TTX was added to the recording solution. The intracellular solution contained (in mM): K-gluconate (140), HEPES (20), EGTA (1.1), phosphocreatine (5), MgATP (3), GTP (0.3), MgCl2 (5), and CaCl2 (0.1); pH: 7.2. All test compound and glutamate solutions were made-up in the extracellular solution.
The whole-cell current was measured with patch-clamp amplifier (Axopatch 200B), filtered at 2 kHz, digitized at 5 kHz and recorded on a PC with pClamp 8. The cells were voltage-clamped at −80 mV. Solutions were applied by DAD-12 system. A baseline response for each cell was recorded using a I s pulse of 500 μM glutamate dissolved in ECS. Responses to test compound were then determined by application of a 10 s pulse of test compound followed by a 1 s pulse of the same concentration of test compound plus 500 μM glutamate and then 10 s of saline. This pulse sequence was repeated until a stable reading was obtained, or until sufficient data points were measured to allow extrapolation to a calculated maximum change.
The mean value of plateau current between 600 ms to 900 ms after application of glutamate or test compound plus glutamate was calculated and used as the parameter to measure the drug effect. The plateau responses in the presence of varying concentrations of test compound were divided by the baseline response in order to calculate the percentage increase. Compounds are deemed active in this test if, at a test concentration of 3 μM or less, they produce a greater than 100% increase in the value of the steady-state current measured due to application of glutamate alone. The concentration at which the glutamate induced current is increased by 100% is commonly referred to as the EC2x value.

AMPA receptors = test: Rat hippocampal slice assay (field EPSP in CA1); format: cell-based
Procedure: In another test, excitatory responses (field EPSPs) were measured in hippocampal slices, which were maintained in a recording chamber continuously perfused with artificial cerebrospinal fluid (ACSF). During a 15-30 minute interval, the perfusion medium was switched to one containing various concentrations of the test compounds. Responses collected immediately before and at the end of drug perfusion were superimposed in order to calculate the percent increase in EPSP amplitude.
The field EPSP (excitatory post-synaptic potential) recorded in field CA1 after stimulation of CA3 axons is known to be mediated by AMPA receptors, which are present in the synapses (Kessler et al., Brain Res. 560: 337-341 (1991)). Drugs that selectively block the receptor selectively block the field EPSP (Muller et al., Science, supra). […] These effects are mirrored in the field EPSP (see, for example, Staubli et al., Psychobiology, supra; Xiao et al., Hippocampus, supra; Staubli et al., Hippocampus 2: 4958 (1992)).
To obtain data for the activity of invention compounds on synaptic responses, a bipolar nichrome stimulating electrode was positioned in the dendritic layer (stratum radiatum) of the hippocampal subfield CA1 close to the border of subfield CA3, as described in Example 30. Current pulses (0.1 msec) through the stimulating electrode activate a population of the Schaffer-commissural (SC) fibers, which arise from neurons in the subdivision CA3 and terminate in synapses on the dendrites of CA1 neurons. Activation of these synapses causes them to release the transmitter glutamate. Glutamate binds to post-synaptic AMPA receptors, which then transiently open an associated ion channel and permit a sodium current to enter the postsynaptic cell. This current results in a voltage in the extracellular space (the field EPSP), which is recorded by a high impedance recording electrode positioned in the middle of the stratum radiatum of CA1.
The intensity of the stimulation current was adjusted to produce half-maximal EPSPs (typically about 1.5-2.0 mV). Paired stimulation pulses were given every 40 sec with an interpulse interval of 200 msec, as described further in Example 30.
Hippocampal slices were maintained in a recording chamber continuously perfused with artificial cerebrospinal fluid (ACSF). During 15-30 minute intervals, the perfusion medium was switched to one containing various concentrations of the test compounds. Responses collected immediately before and at the end of drug perfusion were superimposed in order to calculate the percent increase in EPSP amplitude.

AMPA receptor [2] = test: In vivo electrophysiology (field EPSP in dentate gyrus of anesthetized animals); design: species or system rat
Procedure: The physiological effects of invention compounds were tested in vivo in anesthetized animals according to the following procedures.
Animals are maintained under anesthesia by phenobarbital administered using a Hamilton syringe pump. Stimulating and recording electrodes are inserted into the perforant path and dentate gyrus of the hippocampus, respectively. Once electrodes are implanted, a stable baseline of evoked responses are elicited using single monophasic pulses (100 μs pulse duration) delivered at 3/min to the stimulating electrode. Field EPSPs are monitored until a stable baseline is achieved (about 20-30 min), after which a solution of test compound in HPCD is injected intraperitoneally and evoked field potentials are recorded. Evoked potentials are recorded for approximately 2 h following drug administration or until the amplitude of the field EPSP returns to baseline. In the latter instance, it is common that an iv administration is also carried out with an appropriate dose of the same test compound.

## C#CCn1nnc2cc3c(cc2c1=O)OC1CCCN1C3=O (stereo not drawn) [Example 9, 3-Prop-2-yn-1-yl-6a,7,8,9-tetrahydro-3H-pyrrolo[2′,1′:2,3][1,3]oxazino[6,5-g][1,2,3]benzotriazine4,11-dione]
AMPA receptor [1]
  In vitro Patch Clamp Electrophysiology EC2x: 140 nM
AMPA receptors; @ 3 μM
  % Increase in the amplitude of the field EPSP in the CA1 region of rat hippocampal slice: 11% @ 3 μM
AMPA receptor [2]; 5 mpk i.v.
  % increase in the amplitude of the field EPSP in rat dentate gyrus: 11%^4

## C#C[C@H](Cc1cc(F)cc(F)c1)n1nnc2cc3c(cc2c1=O)O[C@@H]1CCCN1C3=O [Example 16, (6aR)-3-[(2S)-1-(3,5-Difluorophenyl)but-3-yn-2-yl]-6a,7,8,9-tetrahydro-3H-pyrrolo[2′,1′:2,3][1,3]oxazino[6,5-g][1,2,3]benzotriazine-4,11-dione]
AMPA receptor [1]
  In vitro Patch Clamp Electrophysiology EC2x: 3 nM
AMPA receptors; @ 3 μM
  % Increase in the amplitude of the field EPSP in the CA1 region of rat hippocampal slice: 1% @ 3 μM
AMPA receptor [2]; 5 mpk i.p.
  % increase in the amplitude of the field EPSP in rat dentate gyrus: 34%^3

## N#CCn1nnc2cc3c(cc2c1=O)OC1CCCN1C3=O (stereo not drawn) [Example 10, (4,11-Dioxo-4,6a,7,8,9,11-hexahydro-3H-pyrrolo[2′,1′:2,3][1,3]oxazino[6,5-g][1,2,3]benzotriazin-3-yl)acetonitrile]
AMPA receptor [1]
  In vitro Patch Clamp Electrophysiology EC2x: 190 nM
AMPA receptors; @ 10 μM
  % Increase in the amplitude of the field EPSP in the CA1 region of rat hippocampal slice: 10% @ 10 μM
AMPA receptor [2]; 5 mpk i.p.
  % increase in the amplitude of the field EPSP in rat dentate gyrus: 12%^3

## C[C@H](Cn1ncnn1)n1nnc2cc3c(cc2c1=O)OC1CCCN1C3=O (stereo partly drawn) [Example 37A, 3-[(2R)-1-(2H-Tetrazol-2-yl)propan-2-yl]-6a,7,8,9-tetrahydro-3H-pyrrolo[2′,1′:2,3][1,3]oxazino[6,5-g][1,2,3]benzotriazine-4,11-dione]
AMPA receptor [1]
  In vitro Patch Clamp Electrophysiology EC2x: 40 nM
AMPA receptor [2]; 5 mpk i.p.
  % increase in the amplitude of the field EPSP in rat dentate gyrus: 39%^3

## C[C@H](CSC#N)n1nnc2cc3c(cc2c1=O)OC1CCCN1C3=O (stereo partly drawn) [Example 35, (2R)-2-(4,11-Dioxo-4,6a,7,8.9,11-hexahydro-3H-pyrrolo[2′,1′:2,3][1,3]oxazino[6,5-g][1,2,3]benzotriazin-3-yl)propyl thiocyanate]
AMPA receptor [1]
  In vitro Patch Clamp Electrophysiology EC2x: 80 nM
AMPA receptor [2]; 5 mpk i.p.
  % increase in the amplitude of the field EPSP in rat dentate gyrus: 19%^3

## C[C@H](Cn1ncnn1)n1nnc2cc3c(cc2c1=O)OC1COCCN1C3=O (stereo partly drawn) [Example 64, 3-[(2R)-1-(2H-Tetrazol-2-yl)propan-2-yl]-6a,7,9,10-tetrahydro-3H-[1,4]oxazino[3′,4′:2,3][1,3]oxazino[6,5-g][1,2,3]benzotriazine-4,12-dione]
AMPA receptor [1]
  In vitro Patch Clamp Electrophysiology EC2x: 170 nM
AMPA receptor [2]; 5 mpk i.p.
  % increase in the amplitude of the field EPSP in rat dentate gyrus: 30%^3

## O=C1c2cc3nnn(CCn4cccn4)c(=O)c3cc2OC2CCCN12 (stereo not drawn) [Example 36, 3-[2-(1H-Pyrazol-1-yl)ethyl]-6a,7,8,9-tetrahydro-3H-pyrrolo[2′,1′:2,3][1,3]oxazino[6,5-g][1,2,3]benzotriazine-4,11-dione]
AMPA receptor [1]
  In vitro Patch Clamp Electrophysiology EC2x: 100 nM
AMPA receptors; @ 3 μM
  % Increase in the amplitude of the field EPSP in the CA1 region of rat hippocampal slice: 12% @ 3 μM
AMPA receptor [2]; 5 mpk i.v.
  % increase in the amplitude of the field EPSP in rat dentate gyrus: 18%^4

## O=C1c2cc3nnn(C4CC4)c(=O)c3cc2OC2CCCN12 (stereo not drawn) [Example 4, 3-Cyclopropyl-6a,7,8,9-tetrahydro-3H-pyrrolo[2′,1′:2,3][1,3]oxazino[6,5-g][1,2,3]benzotriazine-4,11-dione]
AMPA receptor [1]
  In vitro Patch Clamp Electrophysiology EC2x: 400 nM
AMPA receptors; @ 3 μM
  % Increase in the amplitude of the field EPSP in the CA1 region of rat hippocampal slice: 5% @ 3 μM
AMPA receptor [2]; 5 mpk i.v.
  % increase in the amplitude of the field EPSP in rat dentate gyrus: 19%^4

## O=C1c2cc3nnn(CCc4cccc(F)c4)c(=O)c3cc2OC2CCCN12 (stereo not drawn) [Example 1, 3-[2-(3-Fluorophenyl)ethyl]-6a,7,8,9-tetrahydro-3H-pyrrolo[2′,1′:2,3][1,3]oxazino[6,5-g][1,2,3]benzotriazine-4,11-dione]
AMPA receptor [1]
  In vitro Patch Clamp Electrophysiology EC2x: 3 nM
AMPA receptors; @ 3 μM
  % Increase in the amplitude of the field EPSP in the CA1 region of rat hippocampal slice: 9% @ 3 μM
AMPA receptor [2]; 5 mpk i.p.
  % increase in the amplitude of the field EPSP in rat dentate gyrus: 24%^3
